Literature values as cited in paper PMC10323144, “Garbage in, garbage out: how reliable training data improved a virtual screening approach against SARS-CoV-2 MPro” (Frontiers in Pharmacology, 2023).

tested on: MPro; conditions: compiled from peer-reviewed sources (287 compounds) ref the 18 original articles; cited from earlier work

| Compound | Class (MPro activity class) |
| --- | --- |
| Cc1cccc(C2CN(C(=O)CCl)Cc3ccccc32)c1 (stereo not shown) [NIR-THE-c331be7a-6] | 1 (Compounds with IC50 < 10 µM or with a percentage of enzyme inhibition >50% at 10 µM were labelled as ACTIVE) |
| CC(C)(C#N)c1cc(Cn2cncn2)cc(C(C)(C)C#N)c1 [Anastrozole] | 0 (compounds with IC50 > 20 μM, percentage inhibition <80% at 20 µM or 50 μM, or percentage enzyme inhibition <50% at 10 µM were labelled as INACTIVE) |
| CC(C)CN(C[C@@H](O)[C@H](Cc1ccccc1)NC(=O)O[C@H]1CCOC1)S(=O)(=O)c1ccc(N)cc1 [Amprenavir] | 0 (compounds with IC50 > 20 μM, percentage inhibition <80% at 20 µM or 50 μM, or percentage enzyme inhibition <50% at 10 µM were labelled as INACTIVE) |
| O=S(=O)(CC1CS1)c1ccc(Oc2ccccc2)cc1 (stereo not shown) [SB-3CT] | 0 (compounds with IC50 > 20 μM, percentage inhibition <80% at 20 µM or 50 μM, or percentage enzyme inhibition <50% at 10 µM were labelled as INACTIVE) |
| O=c1[nH]cc(-c2cc(-c3cc(Cl)cc(OCc4ccccc4F)c3)c(=O)n(-c3cccnc3)c2)c(=O)[nH]1 [compound 18] | 1 (Compounds with IC50 < 10 µM or with a percentage of enzyme inhibition >50% at 10 µM were labelled as ACTIVE) |
| CC(C)CC(C=O)NC(=O)C(NS(=O)(=O)c1ccc(F)cc1)C(C)C (stereo not shown) [Calpain inhibitor VI] | 0 (compounds with IC50 > 20 μM, percentage inhibition <80% at 20 µM or 50 μM, or percentage enzyme inhibition <50% at 10 µM were labelled as INACTIVE) |
| O=C(CCl)N1CCN(Cc2cc(Cl)ccc2CNC(=O)N2CCOCC2)CC1 [STU-CHA-6cae54d3-1] | 1 (Compounds with IC50 < 10 µM or with a percentage of enzyme inhibition >50% at 10 µM were labelled as ACTIVE) |
| C[C@@]1(c2cc(-c3cncnc3)c(F)cc2F)CCSC(N)=N1 [LY2811376] | 0 (compounds with IC50 > 20 μM, percentage inhibition <80% at 20 µM or 50 μM, or percentage enzyme inhibition <50% at 10 µM were labelled as INACTIVE) |
| NS(=O)(=O)CCc1ccccc1CN1CCN(C(=O)CCl)CC1 [MIH-UNI-e573136b-5] | 1 (Compounds with IC50 < 10 µM or with a percentage of enzyme inhibition >50% at 10 µM were labelled as ACTIVE) |
| COc1c(O)cc(O)c2c(=O)cc(-c3ccccc3)oc12 [Wogonin] | 0 (compounds with IC50 > 20 μM, percentage inhibition <80% at 20 µM or 50 μM, or percentage enzyme inhibition <50% at 10 µM were labelled as INACTIVE) |
| Cc1cc(C)c(C)c(S(=O)(=O)N2CCN(C(=O)c3cc(=O)[nH]c4ccccc34)CC2)c1C [MAT-POS-916a2c5a-3] | 1 (Compounds with IC50 < 10 µM or with a percentage of enzyme inhibition >50% at 10 µM were labelled as ACTIVE) |
| O=C(CCl)N1CCN(S(=O)(=O)c2ccsc2)CC1 [MAT-POS-ee51dedd-2] | 1 (Compounds with IC50 < 10 µM or with a percentage of enzyme inhibition >50% at 10 µM were labelled as ACTIVE) |
| CC(C)(C)[C@@H]1NC(=O)O[C@@H]2CCC[C@H]2OC/C=C/C(F)(F)c2nc3ccccc3nc2O[C@@H]2C[C@@H](C(=O)N[C@]3(C(=O)NS(=O)(=O)C4(C)CC4)C[C@H]3C(F)F)N(C2)C1=O [Glecaprevir] | 0 (compounds with IC50 > 20 μM, percentage inhibition <80% at 20 µM or 50 μM, or percentage enzyme inhibition <50% at 10 µM were labelled as INACTIVE) |
| COc1ccc(CN=c2[nH]c(N3CCC[C@H]3CO)ncc2C(=O)NCc2ncccn2)cc1Cl | 0 (compounds with IC50 > 20 μM, percentage inhibition <80% at 20 µM or 50 μM, or percentage enzyme inhibition <50% at 10 µM were labelled as INACTIVE) |
| COc1c(O[C@@H]2O[C@H](C(=O)O)[C@@H](O)[C@H](O)[C@H]2O)cc(O)c2c(=O)cc(-c3ccccc3)oc12 [Wogonoside] | 0 (compounds with IC50 > 20 μM, percentage inhibition <80% at 20 µM or 50 μM, or percentage enzyme inhibition <50% at 10 µM were labelled as INACTIVE) |
| Cn1c(=O)cc(N2CCC[C@@H](N)C2)n(Cc2ccccc2C#N)c1=O [Alogliptin] | 0 (compounds with IC50 > 20 μM, percentage inhibition <80% at 20 µM or 50 μM, or percentage enzyme inhibition <50% at 10 µM were labelled as INACTIVE) |
| COc1cccc2[nH]c(C(=O)NC(CC(C)C)C(=O)NC(CC3CCNC3=O)C(=O)CO)cc12 (stereo not shown) [PF-00835231] | 1 (Compounds with IC50 < 10 µM or with a percentage of enzyme inhibition >50% at 10 µM were labelled as ACTIVE) |
| N#Cc1cc(CN2CCN(C(=O)CCl)CC2)c2ccccc2c1 [DAR-DIA-fb20be43-6] | 1 (Compounds with IC50 < 10 µM or with a percentage of enzyme inhibition >50% at 10 µM were labelled as ACTIVE) |
| COC(=O)N[C@H](C(=O)N1CCC[C@H]1c1nc(-c2ccc(-c3ccc(-c4c[nH]c([C@@H]5CCCN5C(=O)[C@@H](NC(=O)OC)C(C)C)n4)cc3)cc2)c[nH]1)C(C)C [Daclatasvir] | 0 (compounds with IC50 > 20 μM, percentage inhibition <80% at 20 µM or 50 μM, or percentage enzyme inhibition <50% at 10 µM were labelled as INACTIVE) |
| O=C(O)[C@H]1C2CCC(CC2)[C@@H]1Nc1nc(-c2c[nH]c3ncc(F)cc23)ncc1F [Pimodivir] | 0 (compounds with IC50 > 20 μM, percentage inhibition <80% at 20 µM or 50 μM, or percentage enzyme inhibition <50% at 10 µM were labelled as INACTIVE) |

| Compound | Class (MPro activity class) |
| --- | --- |
| CCCCCOc1cc(Cl)cc(-c2cc(-c3c[nH]c(=O)[nH]c3=O)cn(-c3cccnc3)c2=O)c1 [compound 13] | 1 (Compounds with IC50 < 10 µM or with a percentage of enzyme inhibition >50% at 10 µM were labelled as ACTIVE) |
| C=C[C@@H]1C[C@]1(NC(=O)[C@@H]1C[C@@H](Oc2ncc(OC)c3ccc(Cl)cc23)CN1C(=O)[C@@H](NC(=O)OC(C)(C)C)C(C)(C)C)C(=O)NS(=O)(=O)C1CC1 [Asunaprevir] | 0 (compounds with IC50 > 20 μM, percentage inhibition <80% at 20 µM or 50 μM, or percentage enzyme inhibition <50% at 10 µM were labelled as INACTIVE) |
| COC(=O)N[C@H](C(=O)N1CCC[C@H]1C(=O)Nc1ccc([C@@H]2CC[C@@H](c3ccc(NC(=O)[C@@H]4CCCN4C(=O)[C@@H](NC(=O)OC)C(C)C)cc3)N2c2ccc(C(C)(C)C)cc2)cc1)C(C)C [Ombitasvir] | 0 (compounds with IC50 > 20 μM, percentage inhibition <80% at 20 µM or 50 μM, or percentage enzyme inhibition <50% at 10 µM were labelled as INACTIVE) |
| COCCOc1cc(Cl)cc(-c2cc(-c3ccccc3C#N)cn(-c3cccnc3)c2=O)c1 [compound 6] | 1 (Compounds with IC50 < 10 µM or with a percentage of enzyme inhibition >50% at 10 µM were labelled as ACTIVE) |
| N[C@@H](CC(=O)N1CCn2c(nnc2C(F)(F)F)C1)Cc1cc(F)c(F)cc1F [Sitagliptin] | 0 (compounds with IC50 > 20 μM, percentage inhibition <80% at 20 µM or 50 μM, or percentage enzyme inhibition <50% at 10 µM were labelled as INACTIVE) |
| COc1ccc(C2CC(c3ccccc3)=NN2C(=O)CCl)cc1OC (stereo not shown) [MED-COV-4280ac29-30] | 1 (Compounds with IC50 < 10 µM or with a percentage of enzyme inhibition >50% at 10 µM were labelled as ACTIVE) |
| COc1ccccc1OCCNC(=O)c1cc(=O)[nH]c2ccccc12 [MAT-POS-916a2c5a-2] | 1 (Compounds with IC50 < 10 µM or with a percentage of enzyme inhibition >50% at 10 µM were labelled as ACTIVE) |
| O=C(Cc1cccc(Cl)c1)Nc1cccnc1 [EDG-MED0da5ad92-2] | 0 (compounds with IC50 > 20 μM, percentage inhibition <80% at 20 µM or 50 μM, or percentage enzyme inhibition <50% at 10 µM were labelled as INACTIVE) |
| COc1ccc(NC(=O)c2ccc(C(=N)N(C)C)cc2)c(C(=O)Nc2ccc(Cl)cn2)c1 [BETRIXABAN] | 0 (compounds with IC50 > 20 μM, percentage inhibition <80% at 20 µM or 50 μM, or percentage enzyme inhibition <50% at 10 µM were labelled as INACTIVE) |
| O=C1c2ccccc2NC(c2cc([N+](=O)[O-])ccc2O)N1N=Cc1cc([N+](=O)[O-])ccc1O (stereo not shown) [QZ5] | 0 (compounds with IC50 > 20 μM, percentage inhibition <80% at 20 µM or 50 μM, or percentage enzyme inhibition <50% at 10 µM were labelled as INACTIVE) |
| Nc1nc(N)c2nc(-c3cccc(O)c3)c(-c3cccc(O)c3)nc2n1 [TG100-115] | 0 (compounds with IC50 > 20 μM, percentage inhibition <80% at 20 µM or 50 μM, or percentage enzyme inhibition <50% at 10 µM were labelled as INACTIVE) |
| cangrelor | 0 (compounds with IC50 > 20 μM, percentage inhibition <80% at 20 µM or 50 μM, or percentage enzyme inhibition <50% at 10 µM were labelled as INACTIVE) |
| CC1=C(C(=O)O)N2C(=O)[C@@H](NC(=O)[C@H](N)c3ccccc3)[C@H]2SC1 [CEPHALEXIN] | 0 (compounds with IC50 > 20 μM, percentage inhibition <80% at 20 µM or 50 μM, or percentage enzyme inhibition <50% at 10 µM were labelled as INACTIVE) |
| CCCOc1cc(Cl)cc(-c2cc(-c3c[nH]c(=O)[nH]c3=O)cn(-c3cccnc3)c2=O)c1 [compound 11] | 1 (Compounds with IC50 < 10 µM or with a percentage of enzyme inhibition >50% at 10 µM were labelled as ACTIVE) |
| O=C(C=Cc1ccc(O)c(O)c1)OC1CC(OC(=O)C=Cc2ccc(O)c(O)c2)(C(=O)O)CC(O)C1O (stereo not shown) [1,3-Dicaffeoylquinic acid] | 0 (compounds with IC50 > 20 μM, percentage inhibition <80% at 20 µM or 50 μM, or percentage enzyme inhibition <50% at 10 µM were labelled as INACTIVE) |
| CC(C)C[C@H](NC(=O)CNC(=O)c1cc(Cl)ccc1Cl)B(O)O [MLN2238] | 0 (compounds with IC50 > 20 μM, percentage inhibition <80% at 20 µM or 50 μM, or percentage enzyme inhibition <50% at 10 µM were labelled as INACTIVE) |
| CC(C)[C@H](O)C(=O)N[C@@H](C)C(=O)N[C@@H]1C(=O)N(C)CCc2ccccc21 [Semagacestat] | 0 (compounds with IC50 > 20 μM, percentage inhibition <80% at 20 µM or 50 μM, or percentage enzyme inhibition <50% at 10 µM were labelled as INACTIVE) |
| CC(NC(=O)C(Cc1ccccc1)NC(=O)OCc1ccccc1)C(=O)CF (stereo not shown) [Z-FA-FMK] | 0 (compounds with IC50 > 20 μM, percentage inhibition <80% at 20 µM or 50 μM, or percentage enzyme inhibition <50% at 10 µM were labelled as INACTIVE) |
| N#Cc1ccccc1-c1cc(-c2cc(Cl)cc(Cl)c2)c(=O)n(-c2cccnc2)c1 [compound 4] | 1 (Compounds with IC50 < 10 µM or with a percentage of enzyme inhibition >50% at 10 µM were labelled as ACTIVE) |
| CCN(CCO)CCCC(C)Nc1ccnc2cc(Cl)ccc12 (stereo not shown) [Hydroxychloroquine] | 0 (compounds with IC50 > 20 μM, percentage inhibition <80% at 20 µM or 50 μM, or percentage enzyme inhibition <50% at 10 µM were labelled as INACTIVE) |
